Where a SMILES comes first, the peptide text is derived from it.
Tests used:
uninfected RH9 cells = system: uninfected RH9 cells
Protocol: (§1) The commercially available peptides, carbobenzoxy-D- Phe-L-Phe-Gly (z-PPG) and Phe-Gly-Gly-Phe (PGGP) were obtained from Sigma Chemical Company, St. Louis, MO in granular form. Stock solutions were prepared to 20 mg/ml in dimethyl sulfoxide and stored at 0° C. A line of uninfected human lymphoblasts, RH9, and a line of lymphoblasts persistently infected with human immunodeficiency virus (HIV) were obtained from Dr. Robert Garry of Tulane Medical Center, New Orleans, La. and grown in RPMI medium containing 10% fetal calf serum obtained from Gibco, Grand Island, N.Y.
To test this further incubated cultures of either uninfected RH9 cells, or HIV-infected carrier cultures, were incubated with PGGP for four days.

[1] = system: human immunodeficiency virus (HIV); assay: HIV-induced cell fusion: RH9 cells mixed with HIV-infected lymphoblasts; type: cell-based; settings: for Polykaryocytes Mean Diameter / Polykaryocytes Per mm^2: RH9 + HIV-RH9; for activity as inhibitor of HIV-induced cell fusion: RH9 + HIV-infected cells
Protocol: as §1
In the experimental protocol, RH9 cells are pretreated with various concentrations of either z-PPG or PGGP by adding a small aliquot of the peptide/DMSO solution to a suspension culture. After 1 hour, a suspension culture containing one-half the number of HIV-infected cells are added to the RH9-peptide mixture. The mixture is then incubated at 37° C. for 18 hours, and examined periodically for induction of cell fusion in the cell mixture.

Question: How did the “effect on rate of growth, final cell density or cell viability” value (uninfected RH9 cells) turn out when `N[C@@H](Cc1ccccc1)C(=O)NCC(=O)NCC(=O)N[C@@H](Cc1ccccc1)C(=O)O` [PGGP, Phe-Gly-Gly-Phe] (H-FGGF-OH) was run?
Answer: no significant effect

Question: Which “Polykaryocytes Mean Diameter” value ([1]; 0.08 M peptide) does the source give for carbobenzoxy-D- Phe-L-Phe-Gly [z-PPG] here?
Answer: 51 um

Question: What about the “Polykaryocytes Per mm^2” value ([1]; 0.08 M peptide) of the same compound?
Answer: 105 per mm^2

Question: And the “Polykaryocytes Mean Diameter” value ([1]; 0.25 M peptide)?
Answer: 37 um

Question: What about the “Polykaryocytes Per mm^2” value ([1]; 0.25 M peptide) of the same compound?
Answer: 59 per mm^2

Question: What about the “Polykaryocytes Mean Diameter” value ([1]; 0.8 M peptide) of the same compound?
Answer: 26 um

Question: What about the “Polykaryocytes Per mm^2” value ([1]; 0.8 M peptide) of the same compound?
Answer: 4 per mm^2

Question: What about the “inhibition of fusion (phase photomicrographs, FIG. 1)” value ([1]; approximtely 1 mM peptide, 1 hour pretreatment of RH9, 18 hours at 37° C.) of the same compound?
Answer: almost complete inhibition of fusion

Question: And the minimal inhibitory dose ([1]; inhibition of cell fusion under these experimental conditions, 18 hours)?
Answer: 0.3 mM

Question: For z-Phe-Gly [reference compound], which “activity as inhibitor of HIV-induced cell fusion” value (from here on “activity as inhibitor”) [1] is on record?
Answer: no demonstrable activity

Question: Which “activity as inhibitor” value [1] does the source give for “z-Phe-Leu [x-Phe-Leu, reference compound]” here?
Answer: no demonstrable activity

Question: What about the “activity as inhibitor” value ([1]; listed as z-Phe-Leu) of the same compound?
Answer: ineffective
